In the NIST ThermoML archive (doi:10.1016/j.jct.2018.05.016):

Experiment: mn = molality of the nth substance listed, in mol/kg
Settings: 100 kPa, Liquid; for speed of sound: Frequency=3 MHz, Single path-length method; for mass density: Vibrating tube method

O [water] + OCC(O)CO
m2 = 0
Settings | speed of sound [m/s]
298.15 K | 1495.9
303.15 K | 1508.5
308.15 K | 1519.1

O [water] + OCCO
Settings | speed of sound [m/s]
303.15 K, m2 = 0 | 1508.5

O [water] + OCCOCCOCCO
Settings | speed of sound [m/s]
303.15 K, m2 = 0 | 1508.5

OCCO [1,2-ethanediol] + O
Settings | mass density, m1 = 0.09889 [kg/m3] | mass density, m1 = 0.1989 [kg/m3] | mass density, m1 = 0.2997 [kg/m3] | mass density, m1 = 0.3948 [kg/m3] | mass density, m1 = 0.5016 [kg/m3] | speed of sound, m1 = 0.09889 [m/s] | speed of sound, m1 = 0.1989 [m/s] | speed of sound, m1 = 0.2997 [m/s] | speed of sound, m1 = 0.3948 [m/s] | speed of sound, m1 = 0.5016 [m/s]
293.15 K | 999.06 | 999.88 | 1000.68 | 1001.41 | 1002.2 | 1485.3 | 1488.3 | 1491.2 | 1493.9 | 1496.8
303.15 K | 996.47 | 997.26 | 998.03 | 998.73 | 999.48 | 1511.1 | 1513.8 | 1516.2 | 1518.7 | 1521.2

OCC(O)CO [glycerol] + O
Settings | mass density, 293.15 K [kg/m3] | mass density, 298.15 K [kg/m3] | mass density, 303.15 K [kg/m3] | mass density, 308.15 K [kg/m3] | speed of sound, 293.15 K [m/s] | speed of sound, 298.15 K [m/s] | speed of sound, 303.15 K [m/s] | speed of sound, 308.15 K [m/s]
m1 = 0.01 | 998.45 | 997.31 | 995.87 | 994.25 | 1483.2 | 1497 | 1509.3 | 1519.9
m1 = 0.03 | 998.87 | 997.71 | 996.3 | 994.68 | 1484 | 1497.8 | 1510 | 1520.6
m1 = 0.05 | 999.29 | 998.12 | 996.72 | 995.09 | 1484.8 | 1498.6 | 1510.7 | 1521.2

O [water] + OCCOCCO
Settings | speed of sound [m/s]
303.15 K, m2 = 0 | 1508.5

OCCOCCOCCO [triethylene glycol] + O
Settings | mass density, m1 = 0.0965 [kg/m3] | mass density, m1 = 0.2002 [kg/m3] | mass density, m1 = 0.292 [kg/m3] | mass density, m1 = 0.3986 [kg/m3] | mass density, m1 = 0.4988 [kg/m3] | speed of sound, m1 = 0.0965 [m/s] | speed of sound, m1 = 0.2002 [m/s] | speed of sound, m1 = 0.292 [m/s] | speed of sound, m1 = 0.3986 [m/s] | speed of sound, m1 = 0.4988 [m/s]
293.15 K | 1000.31 | 1002.46 | 1004.29 | 1006.36 | 1008.22 | 1489.9 | 1498 | 1504.8 | 1513.1 | 1520.5
303.15 K | 997.73 | 999.86 | 1001.67 | 1003.69 | 1005.54 | 1514.9 | 1521.8 | 1528 | 1535.1 | 1541.7

OCCOCCO [diethylene glycol] + O
Settings | mass density, m1 = 0.09849 [kg/m3] | mass density, m1 = 0.1974 [kg/m3] | mass density, m1 = 0.295 [kg/m3] | mass density, m1 = 0.4101 [kg/m3] | mass density, m1 = 0.5006 [kg/m3] | speed of sound, m1 = 0.09849 [m/s] | speed of sound, m1 = 0.1974 [m/s] | speed of sound, m1 = 0.295 [m/s] | speed of sound, m1 = 0.4101 [m/s] | speed of sound, m1 = 0.5006 [m/s]
293.15 K | 999.65 | 1001.03 | 1002.36 | 1003.86 | 1004.99 | 1487.7 | 1493.1 | 1498.1 | 1504.1 | 1508.3
303.15 K | 997.07 | 998.39 | 999.64 | 1001.05 | 1002.15 | 1513.1 | 1517.6 | 1522 | 1526.9 | 1530.6
